Reference: patent US20250282754A1, “BICYCLIC COMPOUNDS AND THEIR USE AS PEST CONTROL AGENTS” (Pl Industries Ltd., priority 2022, published 2025)

What follows are molecules tested on Nilaparvata lugens (assay: Nilaparvata lugens seedling dip test (paddy seedlings, third instar nymphs)). Details: dead and moribund third instar nymphs 72 h after release, compared to untreated controls, read-out: percent mortality.
Assay type: in vivo
Experimental: The seedling dip method was used for testing, wherein the required quantity of the compound was weighed and dissolved in a tube containing a solvent solution. The tube was put on a vortex at 2000 rpm for proper mixing and then diluted with a 0.01% Triton-X solution to the desired test concentration. Paddy seedlings were dipped in the compound solution for 10 seconds, shade dried for 20 min and then the seedlings were placed in glass test tubes with the roots kept in water. 15 third instar nymphs of Nilaparvata lugens were released into each test tube and the tubes were kept in a plant growth chamber at a temperature of 25° C. and relative humidity of 75%. Observations on dead, moribund and alive nymphs were recorded 72 h after the release. Percent mortality was calculated by combining dead and moribund nymphs and comparing the result to the one of the untreated controls. The compounds
With `CCS(C)(=O)=Nc1ccc2nn(-c3cncc(F)c3)cc2c1` (centres unmarked) [Compound 5] the mortality at 300 ppm was ≥ 70%.
`CS(C)(=O)=Nc1ccc2nn(-c3cncc(F)c3)cc2c1` [Compound 8] was tested, and the mortality at 300 ppm was ≥ 70%.
With `CS(=O)(Cc1ccccc1)=Nc1ccc2nn(-c3cncc(F)c3)cc2c1` (centres unmarked) [Compound 13] the mortality at 300 ppm was ≥ 70%.
For `CS(=O)(=Nc1ccc2nn(-c3cncc(F)c3)cc2c1)c1ccccc1` (centres unmarked) [Compound 14], the mortality at 300 ppm was ≥ 70%.
For `CS(=O)(Cc1ccccc1)=Nc1ccc2nn(-c3cncnc3)cc2c1` (centres unmarked) [Compound 16], the mortality at 300 ppm was ≥ 70%.
In the case of `CC(C)(C)S(C)(=O)=Nc1ccc2nn(-c3cncnc3)cc2c1` (centres unmarked) [Compound 19], the mortality at 300 ppm is reported as ≥ 70%.
`CS(=O)(=Nc1ccc2nn(-c3cccnc3)cc2c1)c1ccccc1` (centres unmarked) [Compound 21] was tested, and the mortality at 300 ppm was ≥ 70%.
In the case of `Cc1ccc(S(C)(=O)=Nc2ccc3nn(-c4cccnc4)cc3c2)cc1` (centres unmarked) [Compound 23], the mortality at 300 ppm is reported as ≥ 70%.
In the case of `CS(=O)(=Nc1ccc2nn(-c3cccnc3)cc2c1)c1ccc(Cl)cc1` (centres unmarked) [Compound 26], the mortality at 300 ppm is reported as ≥ 70%.
With `CCCCCS(C)(=O)=Nc1ccc2nn(-c3cccnc3)cc2c1` (centres unmarked) [Compound 27] the mortality at 300 ppm was ≥ 70%.
With `CCCCCS(C)(=O)=Nc1ccc2nn(-c3cncc(F)c3)cc2c1` (centres unmarked) [Compound 42] the mortality at 300 ppm was ≥ 70%.

Each molecule was assayed on Bemisia tabaci (assay: Bemisia tabaci leaf dip test (brinjal leaves, whitefly adults)). Details: foliar, dead and moribund whitefly adults 72 h after release, compared to untreated controls, read-out: percent mortality.
Assay type: in vivo
Experimental: The leaf dip method was used for testing, wherein the required quantity of the compound was weighed and dissolved in a tube containing a solvent solution. The tube was put on a vortex at 2000 rpm for proper mixing and then diluted with a 0.01% Triton-X solution to the desired test concentration. Brinjal leaves were dipped in the compound solution for 10 seconds; shade dried for 20 min and then placed, with the abaxial side of the leaf up, on 4 ml of a solidified 1% agar-agar solution in respective container caps. Known numbers of freshly emerged whitefly adults were collected, using a modified aspirator, and released into a perforated container in which the cap containing the treated leaf was placed. The containers were kept in a plant growth chamber at a temperature of 25° C. and relative humidity of 70%. Observations on dead, moribund and alive adults were recorded 72 h after the release. Percent mortality was calculated by combining dead and moribund adults and comparing the result to the one of the untreated controls. The compounds 1 9 11 18 25 28 29 30 31
With `CC(C)S(=O)(=Nc1ccc2nn(-c3cncnc3)cc2c1)c1ccc(F)cc1` (centres unmarked) [Compound 18] the mortality at 300 ppm was ≥ 70%.
With `CC(C)S(=O)(=Nc1ccc2nn(-c3cncnc3)cc2c1)C(C)C` [Compound 31] the mortality at 300 ppm was ≥ 70%.
For `CCS(=O)(=Nc1ccc2nn(-c3cncnc3)cc2c1)c1ccccc1` (centres unmarked) [Compound 34], the mortality at 300 ppm was ≥ 70%.
For `CCS(=O)(CC)=Nc1ccc2nn(-c3ccnnc3)cc2c1` [Compound 43], the mortality at 300 ppm was ≥ 70%.
With `CCS(=O)(=Nc1ccc2nn(-c3ccnnc3)cc2c1)C(C)C` (centres unmarked) [Compound 48] the mortality at 300 ppm was ≥ 70%.
For `O=S(CCC(F)(F)F)(=Nc1ccc2nn(-c3cncc(F)c3)cc2c1)c1ccccc1` (centres unmarked) [Compound 65], the mortality at 300 ppm was ≥ 70%.
`COc1ccc(S(=O)(CCC(F)(F)F)=Nc2ccc3nn(-c4cncc(F)c4)cc3c2)cc1` (centres unmarked) [Compound 66] was tested, and the mortality at 300 ppm was ≥ 70%.
For `O=S(CCC(F)(F)F)(=Nc1ccc2nn(-c3ccnnc3)cc2c1)c1ccccc1` (centres unmarked) [Compound 68], the mortality at 300 ppm was ≥ 70%.
With `CC(C)S(C)(=O)=Nc1cccc2nn(-c3cccnc3)cc12` (centres unmarked) [Compound 74] the mortality at 300 ppm was ≥ 70%.
`CCCS(=O)(CCC)=Nc1cccc2nn(-c3cncc(F)c3)cc12` [Compound 77] was tested, and the mortality at 300 ppm was ≥ 70%.
`CC(C)CS(=O)(CC(C)C)=Nc1ccc2nn(-c3cccnc3)cc2c1` [Compound 79] was tested, and the mortality at 300 ppm was ≥ 70%.
In the case of `CC(C)S(=O)(CCC(F)(F)F)=Nc1ccc2nn(-c3cncnc3)cc2c1` (centres unmarked) [Compound 101, isopropyl((2-(pyrimidin-5-yl)-2H-indazol-5-yl)imino)(3,3,3-trifluoropropyl)-λ^6-sulfanone], the mortality at 300 ppm is reported as ≥ 70%.
With `CCS(=O)(=Nc1ccc(F)c2nn(-c3cccnc3)cc12)C(C)C` (centres unmarked) [Compound 108] the mortality at 300 ppm was ≥ 70%.
In the case of `CCS(C)(=O)=Nc1ccc(F)c2nn(-c3cccnc3)cc12` (centres unmarked) [Compound 109], the mortality at 300 ppm is reported as ≥ 70%.
In the case of `COc1nn(-c2ccc3nn(-c4ccc(C)nc4C)cc3c2)c(=O)n1C` [Compound 116, 2-(2-(2,6-dimethylpyridin-3-yl)-2H-indazol-5-yl)-5-methoxy-4-methyl-2,4-dihydro-3H-1,2,4-triazol-3-one], the mortality at 300 ppm is reported as ≥ 70%.
For `COc1nn(-c2ccc3nn(-c4cccnc4)cc3c2)c(=O)n1Cc1ccccc1F` [Compound 122, 4-(2-fluorobenzyl)-5-methoxy-2-(2-(pyridin-3-yl)-2H-indazol-5-yl)-2,4-dihydro-3H-1,2,4-triazol-3-one], the mortality at 300 ppm was ≥ 70%.
`CCN(C)S(=O)(=Nc1ccc2nn(-c3cncnc3)cc2c1)C1CC1` (centres unmarked) [Compound 135, N-ethyl-N-methyl-N′-(2-(pyrimidin-5-yl)-2H-indazol-5-yl)cyclopropanesulfonimidamide] was tested, and the mortality at 300 ppm was ≥ 70%.
For `CCCS(=O)(CCC)=Nc1cnc2nn(-c3cncnc3)cc2c1` [Compound 184], the mortality at 300 ppm was ≥ 70%.
For `CC(C)S(C)(=O)=Nc1ccc2nn(-c3cncnc3)cc2n1` (centres unmarked) [Compound 213], the mortality at 300 ppm was ≥ 70%.
For `CCCCS(=O)(CC)=Nc1ccc2nn(-c3cccnc3)cc2n1` (centres unmarked) [Compound 214], the mortality at 300 ppm was ≥ 70%.
`CCS(=O)(CC)=Nc1ccc2nn(-c3cncnc3)cc2n1` [Compound 219] was tested, and the mortality at 300 ppm was ≥ 70%.
`CCCCS(=O)(CC)=Nc1ccc2nn(-c3cncnc3)cc2n1` (centres unmarked) [Compound 220] was tested, and the mortality at 300 ppm was ≥ 70%.
For `CC(C)CS(=O)(CC(C)C)=Nc1ccc2nn(-c3cncnc3)cc2n1` [Compound 221], the mortality at 300 ppm was ≥ 70%.
For `CS(=O)(=Nc1ccc2nn(-c3cncnc3)cc2n1)C1CCCCC1` (centres unmarked) [Compound 223], the mortality at 300 ppm was ≥ 70%.
For `CS(C)(=O)=NC(=O)c1ccc2nn(-c3cncnc3)cc2c1` [Compound 228, N-(dimethyl(oxo)-λ^6-sulfaneylidene)-2-(pyrimidin-5-yl)-2H-indazole-5-carboxamide], the mortality at 300 ppm was ≥ 70%.
In the case of `CCS(=O)(CC)=NC(=O)c1ccc2nn(-c3cncnc3)cc2c1` [Compound 231, N-(diethyl(oxo)-λ^6-sulfaneylidene)-2-(pyrimidin-5-yl)-2H-indazole-5-carboxamide], the mortality at 300 ppm is reported as ≥ 70%.
In the case of `CCS(=O)(=Nc1ccc2nn(-c3cncnc3)cc2n1)C(C)C` (centres unmarked) [Compound 241], the mortality at 300 ppm is reported as ≥ 70%.
`CCCS(=O)(CCC)=Nc1cc2cn(-c3cncnc3)nc2cn1` [Compound 278] was tested, and the mortality at 300 ppm was ≥ 70%.
For `CC(C)S(=O)(CC1CCC1)=Nc1ccc2nn(-c3cccnc3)cc2n1` (centres unmarked) [Compound 289], the mortality at 300 ppm was ≥ 70%.
`CC(C)(C)S(C)(=O)=Nc1ccc2nn(-c3cncc(F)c3)cc2c1` (centres unmarked) [Compound 293] was tested, and the mortality at 300 ppm was ≥ 70%.
With `CC(C)CCS(=O)(=Nc1ccc2nn(-c3cncnc3)cc2c1)C(C)C` (centres unmarked) [Compound 294] the mortality at 300 ppm was ≥ 70%.
For `CCS(=O)(CC)=Nc1cc(C(F)(F)F)c2nn(-c3cccnc3)cc2c1` [Compound 296], the mortality at 300 ppm was ≥ 70%.
In the case of `CCS(C)(=O)=Nc1ccc2nn(-c3cncc(F)c3)cc2n1` (centres unmarked) [Compound 307], the mortality at 300 ppm is reported as ≥ 70%.
In the case of `CCS(=O)(CC)=Nc1ccc2nn(-c3cncc(F)c3)cc2n1` [Compound 308], the mortality at 300 ppm is reported as ≥ 70%.
In the case of `CCCS(C)(=O)=Nc1ccc2nn(-c3cncc(F)c3)cc2n1` (centres unmarked) [Compound 309], the mortality at 300 ppm is reported as ≥ 70%.
`CCCS(=O)(CCC)=Nc1ccc2nn(-c3cncc(F)c3)cc2n1` [Compound 310] was tested, and the mortality at 300 ppm was ≥ 70%.
`CC(C)S(C)(=O)=Nc1ccc2nn(-c3cncc(F)c3)cc2n1` (centres unmarked) [Compound 311] was tested, and the mortality at 300 ppm was ≥ 70%.
`CC(C)(C)S(C)(=O)=Nc1ccc2nn(-c3cncc(F)c3)cc2n1` (centres unmarked) [Compound 313] was tested, and the mortality at 300 ppm was ≥ 70%.
`COc1nn(-c2ccc3nn(-c4cccnc4)cc3c2)c(=O)n1Cc1ccc(Cl)c(Cl)c1` [Compound 368, 4-(3,4-dichlorobenzyl)-5-methoxy-2-(2-(pyridin-3-yl)-2H-indazol-5-yl)-2,4-dihydro-3H-1,2,4-triazol-3-one] was tested, and the mortality at 300 ppm was ≥ 70%.
`COc1nn(-c2ccc3nn(-c4cccnc4)cc3c2)c(=O)n1Cc1ccc(Cl)cc1Cl` [Compound 369, 4-(2,4-dichlorobenzyl)-5-methoxy-2-(2-(pyridin-3-yl)-2H-indazol-5-yl)-2,4-dihydro-3H-1,2,4-triazol-3-one] was tested, and the mortality at 300 ppm was ≥ 70%.
For `CN=S(=O)(c1ccc2nn(-c3cccnc3)cc2c1)C(C)C` (centres unmarked) [Compound 408], the mortality at 300 ppm was ≥ 70%.
In the case of `CC(C)S(=N)(=O)c1ccc2nn(-c3cncnc3)cc2c1` (centres unmarked) [Compound 410, imino(isopropyl)(2-(pyrimidin-5-yl)-2H-indazol-5-yl)-λ^6-sulfanone], the mortality at 300 ppm is reported as ≥ 70%.
`CC(=O)N=S(=O)(c1ccc2nn(-c3cncnc3)cc2c1)C(C)C` (centres unmarked) [Compound 418] was tested, and the mortality at 300 ppm was ≥ 70%.
With `CC(C)S(=O)(=NC(=O)C(F)F)c1ccc2nn(-c3cncnc3)cc2c1` (centres unmarked) [Compound 421] the mortality at 300 ppm was ≥ 70%.
With `CCS(=O)(=Nc1cncc(C(F)(F)F)n1)c1ccc2nn(-c3cncc(F)c3)cc2c1` (centres unmarked) [Compound 463] the mortality at 300 ppm was ≥ 70%.
With `N=S(=O)(CC1CCC1)c1ccc2nn(-c3cncnc3)cc2c1` (centres unmarked) [Compound 465, (cyclobutylmethyl)(imino)(2-(pyrimidin-5-yl)-2H-indazol-5-yl)-λ^6-sulfanone] the mortality at 300 ppm was ≥ 70%.
For `CCN=S(=O)(CC1CCC1)c1ccc2nn(-c3cncnc3)cc2c1` (centres unmarked) [Compound 466], the mortality at 300 ppm was ≥ 70%.
In the case of `CC(=O)N=S(=O)(CC1CCC1)c1ccc2nn(-c3cncnc3)cc2c1` (centres unmarked) [Compound 467], the mortality at 300 ppm is reported as ≥ 70%.
`N=S(=O)(c1ccc2nn(-c3cccnc3)cc2c1)C1CCC1` (centres unmarked) [Compound 554, cyclobutyl(imino)(2-(pyridin-3-yl)-2H-indazol-5-yl)-λ^6-sulfanone] was tested, and the mortality at 300 ppm was ≥ 70%.
For `N=S(=O)(CCC1CCCCC1)c1ccc2nn(-c3cccnc3)cc2c1` (centres unmarked) [Compound 561, (2-cyclohexylethyl)(imino)(2-(pyridin-3-yl)-2H-indazol-5-yl)-λ^6-sulfanone], the mortality at 300 ppm was ≥ 70%.
With `N=S(=O)(CCC(F)(F)F)c1ccc2nn(-c3cccnc3)cc2c1` (centres unmarked) [Compound 580, imino(2-(pyridin-3-yl)-2H-indazol-5-yl)(3,3,3-trifluoropropyl)-λ^6-sulfanone] the mortality at 300 ppm was ≥ 70%.
